The species named for assay [1] is Homo sapiens. Put plainly: Selectivity ratio of EC50 for human muscarinic M4 receptor to EC50 for human muscarinic M1 receptor.
For assay [2], the target named is T1, Muscarinic acetylcholine receptor M4 (Homo sapiens, UniProt P08173).
T1 sequence (P08173 whole entry): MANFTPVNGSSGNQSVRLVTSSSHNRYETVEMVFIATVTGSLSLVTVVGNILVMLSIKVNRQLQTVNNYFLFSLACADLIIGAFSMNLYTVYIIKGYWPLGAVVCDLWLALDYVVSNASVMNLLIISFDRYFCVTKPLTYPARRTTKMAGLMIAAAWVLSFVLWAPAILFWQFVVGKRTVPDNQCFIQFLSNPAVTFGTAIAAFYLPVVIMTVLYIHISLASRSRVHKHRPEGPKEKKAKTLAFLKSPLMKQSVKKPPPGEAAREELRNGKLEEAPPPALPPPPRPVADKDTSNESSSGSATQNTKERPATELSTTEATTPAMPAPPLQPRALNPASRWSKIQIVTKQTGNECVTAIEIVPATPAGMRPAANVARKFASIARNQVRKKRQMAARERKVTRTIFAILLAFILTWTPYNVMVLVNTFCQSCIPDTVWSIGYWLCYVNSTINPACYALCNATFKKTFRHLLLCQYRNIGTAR
Put plainly: Inhibition of human muscarinic M4 receptor expressed in CHO cells. The format is cell-based.

The target in assay [3] is T2, Muscarinic acetylcholine receptor M1 (Homo sapiens) (UniProt P11229).
T2 sequence (whole entry): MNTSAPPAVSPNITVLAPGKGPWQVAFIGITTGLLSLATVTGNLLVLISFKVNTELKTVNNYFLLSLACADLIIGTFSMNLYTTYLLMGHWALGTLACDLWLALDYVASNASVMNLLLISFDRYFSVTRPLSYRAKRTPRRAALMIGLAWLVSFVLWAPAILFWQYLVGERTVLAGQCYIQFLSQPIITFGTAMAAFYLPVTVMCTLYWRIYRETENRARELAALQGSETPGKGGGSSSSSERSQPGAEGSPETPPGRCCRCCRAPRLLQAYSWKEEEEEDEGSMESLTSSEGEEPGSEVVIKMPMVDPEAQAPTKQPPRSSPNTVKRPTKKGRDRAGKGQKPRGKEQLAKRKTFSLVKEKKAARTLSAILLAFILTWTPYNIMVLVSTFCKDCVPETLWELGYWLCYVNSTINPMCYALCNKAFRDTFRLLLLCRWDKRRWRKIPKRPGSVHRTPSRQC
Put plainly: Intrinsic activity at human muscarinic M1 receptor expressed in CHO cells assessed as effect on acetylcholine-induced intracellular calcium level by FLIPR assay relative to acetylcholine. The format is functional, cell-based.

In assay [4] the target is T3, Muscarinic acetylcholine receptor M3 (Homo sapiens, UniProt P20309). The assay is described as follows: Inhibition of human muscarinic M3 receptor expressed in CHO cells. The format is cell-based.
Target sequence in this assay (P20309 whole entry): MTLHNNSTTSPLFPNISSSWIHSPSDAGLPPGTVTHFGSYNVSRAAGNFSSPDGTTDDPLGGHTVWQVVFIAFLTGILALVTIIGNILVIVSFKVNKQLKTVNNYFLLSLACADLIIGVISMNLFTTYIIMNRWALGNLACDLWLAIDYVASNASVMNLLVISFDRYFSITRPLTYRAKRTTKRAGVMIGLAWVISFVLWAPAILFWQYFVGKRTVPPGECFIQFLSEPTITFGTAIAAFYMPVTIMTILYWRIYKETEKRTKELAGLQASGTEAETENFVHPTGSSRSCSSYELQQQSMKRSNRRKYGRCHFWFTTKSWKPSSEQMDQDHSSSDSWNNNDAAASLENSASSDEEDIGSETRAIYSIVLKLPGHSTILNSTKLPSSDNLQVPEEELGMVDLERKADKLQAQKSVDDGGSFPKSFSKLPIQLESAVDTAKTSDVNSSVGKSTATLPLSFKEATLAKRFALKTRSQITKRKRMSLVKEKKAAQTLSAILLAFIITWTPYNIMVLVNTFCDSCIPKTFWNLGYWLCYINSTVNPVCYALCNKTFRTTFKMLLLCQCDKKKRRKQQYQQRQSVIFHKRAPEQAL
Assay [5] addresses T4, Muscarinic acetylcholine receptor M2 (Homo sapiens) (UniProt P08172).
T4 sequence (whole entry): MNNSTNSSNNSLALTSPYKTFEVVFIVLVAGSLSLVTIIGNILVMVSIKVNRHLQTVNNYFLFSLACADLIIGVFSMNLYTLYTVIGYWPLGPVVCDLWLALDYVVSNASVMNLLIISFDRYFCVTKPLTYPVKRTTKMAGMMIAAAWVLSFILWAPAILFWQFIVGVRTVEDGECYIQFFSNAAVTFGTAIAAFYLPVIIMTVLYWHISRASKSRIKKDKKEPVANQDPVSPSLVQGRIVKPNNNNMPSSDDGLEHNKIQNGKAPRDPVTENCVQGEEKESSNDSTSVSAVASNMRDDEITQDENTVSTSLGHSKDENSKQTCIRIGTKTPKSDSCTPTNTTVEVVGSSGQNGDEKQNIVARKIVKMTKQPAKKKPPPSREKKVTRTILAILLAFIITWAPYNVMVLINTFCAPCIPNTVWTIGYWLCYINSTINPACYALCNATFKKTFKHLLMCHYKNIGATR
Put plainly: Agonist activity at human muscarinic M2 receptor expressed in CHO cells assessed as effect on acetylcholine-induced intracellular calcium level by FLIPR assay. The format is functional, cell-based.

The target of assay [6] is Muscarinic acetylcholine receptors; M1 & M2 (Homo sapiens) (UniProt P11229+P08172). Put plainly: Selectivity ratio of EC50 for human muscarinic M2 receptor to EC50 for human muscarinic M1 receptor.
Assay [7] concerns the target T5, Muscarinic acetylcholine receptor M5 (Homo sapiens) (UniProt P08912).
T5 sequence (whole entry): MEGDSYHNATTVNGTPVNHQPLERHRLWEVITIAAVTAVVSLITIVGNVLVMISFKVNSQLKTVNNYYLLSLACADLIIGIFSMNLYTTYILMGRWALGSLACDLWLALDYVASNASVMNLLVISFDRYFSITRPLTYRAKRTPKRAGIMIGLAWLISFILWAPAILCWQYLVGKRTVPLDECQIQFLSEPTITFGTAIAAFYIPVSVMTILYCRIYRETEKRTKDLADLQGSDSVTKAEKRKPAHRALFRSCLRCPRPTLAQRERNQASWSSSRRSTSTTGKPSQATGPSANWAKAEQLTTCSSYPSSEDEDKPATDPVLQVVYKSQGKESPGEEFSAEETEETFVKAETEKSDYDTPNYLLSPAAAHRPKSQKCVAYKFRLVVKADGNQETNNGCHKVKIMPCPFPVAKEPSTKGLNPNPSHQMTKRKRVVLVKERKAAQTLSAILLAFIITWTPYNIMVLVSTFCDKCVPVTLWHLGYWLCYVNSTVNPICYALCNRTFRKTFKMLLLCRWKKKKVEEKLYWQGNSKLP
Put plainly: Agonist activity at human muscarinic M5 receptor expressed in CHO cells assessed as effect on acetylcholine-induced intracellular calcium level by FLIPR assay. The assay is classed as functional, cell-based.

In assay [8] the target is T6, Muscarinic acetylcholine receptor M1 (Homo sapiens, UniProt P11229).
T6 sequence (P11229 whole entry): T2 sequence (whole entry)
The assay is described as follows: Agonist activity at human muscarinic M1 receptor expressed in CHO cells assessed as effect on acetylcholine-induced intracellular calcium level by FLIPR assay. The format is functional, cell-based.

Assay [9] deals with T7, Muscarinic acetylcholine receptor M2 (Homo sapiens, UniProt P08172).
T7 sequence (P08172 whole entry): T4 sequence (whole entry)
Put plainly: Inhibition of human muscarinic M2 receptor expressed in CHO cells. The assay is classed as cell-based.

For assay [10], the target named is Muscarinic acetylcholine receptor M1 and M3 (Homo sapiens) (UniProt P20309+P11229). The assay is described as follows: Selectivity ratio of EC50 for human muscarinic M3 receptor to EC50 for human muscarinic M1 receptor.
Assay [11] concerns the target T3, Muscarinic acetylcholine receptor M3. The assay is described as follows: Agonist activity at human muscarinic M3 receptor expressed in CHO cells assessed as effect on acetylcholine-induced intracellular calcium level by FLIPR assay. The assay is classed as functional, cell-based.
Target sequence in this assay (P20309 whole entry, looked up): as the sequence (P20309 whole entry) above
Assay [12] is filed under the species Homo sapiens. The assay is described as follows: Selectivity ratio of EC50 for human muscarinic M5 receptor to EC50 for human muscarinic M1 receptor.
In assay [13] the target is T8, Muscarinic acetylcholine receptor M5 (Homo sapiens, UniProt P08912).
T8 sequence (P08912 whole entry): T5 sequence (whole entry)
Put plainly: Inhibition of human muscarinic M5 receptor expressed in CHO cells. The assay is classed as cell-based.

The target of assay [14] is T9, Muscarinic acetylcholine receptor M4 (Homo sapiens) (UniProt P08173).
T9 sequence (whole entry): T1 sequence (P08173 whole entry)
The assay is described as follows: Agonist activity at human muscarinic M4 receptor expressed in CHO cells assessed as effect on acetylcholine-induced intracellular calcium level by FLIPR assay. The format is functional, cell-based.

SMILES strings stand for the structures. pEC50, pIC50: −log10 of the molar value. Active and inactive are the calls of the source. No cut-off for these calls is given here.

Chain of Muscarinic acetylcholine receptor M1 and M3 (Homo sapiens) (P20309 whole entry, looked up, one chain of several): as the sequence (P20309 whole entry) above

For the compound `CC1CNCCC1CNC(=O)c1ccccc1-c1cccc(Cl)c1` (centres undefined), the Ratio EC50 in assay [1], in [6], in assay [10] and in assay [12] was 100 in each case. Besides, the pIC50 is 5.50 in assay [2], 5.90 in assay [4], 5.40 in assay [9] and < 5.00 in assay [13]. The Intrinsic activity in assay [3] is 99%. Also, the outcome in assay [5], in [7], in assay [11] and in assay [14] was inactive. In addition, in [8], the pEC50 is 7.70.
For the compound `O=C(NCC1CCNCC1)c1ccccc1-c1cc(Cl)ccc1F`, the Ratio EC50 in [1], in assay [6], in assay [10] and in assay [12] was 100 throughout. Also, the negative logarithm of the IC50 (pIC50) in assay [2] was 5.80; in [4] it was 6.00; in [9], 5.70; in assay [13], 5.30. Moreover, the Intrinsic activity in assay [3] stood at 111%. Also, in assay [8], the pEC50 is 8.00.
With `O=C(NCC1CCNCC1)c1ccccc1-c1nc(Cl)cs1`, the Intrinsic activity in assay [3] turned out to be 84%. The result in assay [5], in assay [7], in assay [11] and in assay [14] was inactive.
On to `Cc1ccc(-c2ccccc2C(=O)NCC2CCNCC2)cc1Cl`, for which the pIC50 was 6.40 in assay [2], 6.60 in [4], 6.40 in assay [9] and 6.10 in [13]. Also, in assay [3], the Intrinsic activity was found to be 91%. Further, the outcome in assay [5], in assay [7], in [11] and in assay [14] was inactive. In addition, the pEC50 in assay [8] was 7.90.
Take `O=C(NCC1CCNCC1)c1ccccc1-c1cccc(Cl)c1`: the pIC50 in [2] was 5.30; in assay [4], 5.40; in assay [9], 5.10; in assay [13] it was < 5.00. Moreover, the Intrinsic activity in assay [3] was 86%. The result in [5], in [7], in assay [11] and in assay [14] was inactive. Moreover, in assay [8], the negative logarithm of the EC50 (pEC50) is 7.20.

(Values after ChEMBL document CHEMBL1158607, “2' biaryl amides as novel and subtype selective M1 agonists. Part I: Identification, synthesis, and initial SAR” (Bioorg Med Chem Lett, 2010).)
